Test results taken from paper PMC8217170, “Phase Ib dose-escalation study of the hypoxia-modifier Myo-inositol trispyrophosphate in patients with hepatopancreatobiliary tumors” (Nature Communications, 2021).

Assay: Phase Ib dose escalation: safety and tolerability (CTCAE v4.03), MTD
Format: in vivo, human
Design: key to Hypercalcemia, CTCAE-Grade / Hypophosphatemia, CTCAE-Grade / Cholestasis, CTCAE-Grade / Nausea, CTCAE-Grade / Hypertension, CTCAE-Grade / Upper respiratory tract infection, CTCAE-Grade / Hyponatremia, CTCAE-Grade / Hypomagnesemia, CTCAE-Grade / Ascites & death due to rapid progression of malignancy, CTCAE-Grade / Hypokalemia, CTCAE-Grade / Pyrexia, CTCAE-Grade / Hyperphosphatemia, CTCAE-Grade / AV Block 1°, CTCAE-Grade / Palpations, CTCAE-Grade: 1 is the mildest form of the specific symptom; 5 is death
Conditions: for Hypercalcemia, CTCAE-Grade: relationship to IMP: Definitively
Text: This first-in-patient investigator-initiated phase Ib dose-escalation study followed a 3 + 3 dose-escalation scheme with a planned maximal inclusion of 48 participants allocated to eight cohorts of increasing doses. Outcomes were safety, tolerability, pharmacokinetics, and preliminary efficacy of ITPP with participants in this exploratory, prospective, open-label and unblinded, unrandomized, single-center investigation being enrolled at the University Hospital Zurich (USZ), Switzerland. Written informed consent was obtained of all participants before study inclusion after a time of consideration of at least 24 h. Written consent included the reporting and publication of individual, anonymized patient data. The study adhered to the principles of the Declaration of Helsinki, current good clinical practice guidelines and all ethical regulations. The study protocol was approved by the responsible independent ethics committee of Zurich (KEK-ZH-Nr. 2014-0374) and the national regulatory authority Swissmedic (2015DR1009) and is provided in the Supplementary Note 1. The study setup was published before inclusion start[55] and the trial first registered at ClinicalTrials.gov (NCT02528526) on 11/11/2014. After 6 sequential reviews requiring minor editorial changes, final registration at ClinicalTrials.gov was obtained on the 08/18/2015. The first patient was included in the study 04/13/2015, with treatment started on the 04/27/2015. 4 patients were included in the trial before final registration at ClinicalTrials.gov (04/13/2015–07/20/2015). The last patient was included on the 06/12/2018, treatment started on the 06/18/2018 and the last treatment administered on 07/06/2018. Data cut-off for the study was the 12/31/2018. The manuscript was written in compliance with ICMJE guidelines.
Primary objectives were (i) assessment of the safety and tolerability of increasing doses of ITPP, and (ii) establishment of the MTD (primary endpoint) according to the dose escalation schema. The primary outcome was measured by collection of adverse effects information according to Common Terminology Criteria for Adverse Events (CTCAE, US National Cancer Institute, version 4.03). Safety objectives and outcomes were identical with the primary endpoint.
The study drug (brand name: OXY111A) was intravenously administered in 9 infusions, each lasting 8 h, over 3 weeks in an outpatient setting at the Phase 1 unit of the USZ Clinical Trials Center. Due to its anionic properties, ITPP acts a potent chelator of calcium. Therefore, administration with CaCl2 (Baxter) at a 1:0.75 molar ratio has been determined to prevent hypocalcaemia. Respective doses were calculated based on body surface area (DuBois/DuBois formula). Cohort 1 started at weekly doses of 5600 mg/m^2 weekly, equal to the maximal weekly dose tested in healthy volunteers (unpublished data from Normoxys®). Dose escalation was performed according to the predefined scheme (Fig. 1a, Supplementary Note 1: page 6) up to a maximum weekly dose of 43,700 mg/m^2. During infusion days, participants had continuous monitoring of vital signs and daily 12-electrode electrocardiograms. Electrolytes measurements and venous blood gas analyses were performed three-hourly, while complete blood count, coagulation and routine kidney/liver parameters were assessed twice daily.
Severity of encountered AE was assessed following the CTCAE guidelines. Serious AE were defined as events being life-threatening, necessitating hospitalization, resulting in death or birth defects. DLT was defined as any AE ≥ grade 3 and sTET as any grade 2 AE considered to be definitely, probably or possibly related to ITPP. […] MTD was defined as the dose preceding the level at which 1 patient experienced a DLT or ≥3 patients experienced a sTET (Supplementary Note 1: page 6). The window for DLT/sTET/MTD assessment was from first dose of ITPP until first dose of chemotherapy or 10d following the last ITPP infusion. […]

[1] = cohort 1, SAE, relationship to IMP: Unrelated

O=P1(O)OC2C3OP(=O)(O)OP(=O)(O)OC3C3OP(=O)(O)OP(=O)(O)OC3C2OP(=O)(O)O1 (centres unmarked) [ITPP, Myo-inositol trispyrophosphate]
Number of treatment-related toxicities (TET, at least possibly related to ITPP) (28 patients, all cohorts): 32 | Hypomagnesemia, patients (all CTCAE grade I): 5/28 | Hypophosphatemia, patients (all CTCAE grade I): 4/28 | Hypercalcemia of free ionized calcium, share of patients (all cohorts): 67.9 % of patients | Hypercalcemia, share of ITPP-related AE (all cohorts): 59.4% | Hypomagnesemia/-phosphatemia, share of ITPP-related AE (all cohorts): 28.1% | Number of AE unlikely to be ITPP-induced (all cohorts): 24 | Number of serious adverse events (SAE) (all cohorts): 7 | Share of AE at least possibly related to ITPP (all cohorts): 57% | AV Block 1° (AE, not ITPP-related) (all cohorts, n = 28, total (%)): Total: 1 (3.6%) | Acute kidney injury grade 3 (AE, not ITPP-related) (all cohorts, n = 28, total (%)): Total: 1 (3.6%) | Ascites due to oncological progress (AE, not ITPP-related) (all cohorts, n = 28, total (%)): Total: 3 (10.7%) | C. difficile enteritis (AE, not ITPP-related) (all cohorts, n = 28, total (%)): Total: 1 (3.6%) | Cholestasis (AE, not ITPP-related) (all cohorts, n = 28, total (%)): Total: 1 (3.6%) | Fatigue (AE, not ITPP-related) (all cohorts, n = 28, total (%)): Total: 1 (3.6%) | Hypercalcemia (TET) (all cohorts, n = 28, total (%)): 19 (67.9%) | Hyperphosphatemia (TET) (all cohorts, n = 28, total (%)): Total: 1 (3.6%) | Hypertension (TET) (all cohorts, n = 28, total (%)): Total: 3(10.7%) | Hypokalemia (AE, not ITPP-related) (all cohorts, n = 28, total (%)): Total: 2 (7.1%) | Hypomagnesemia (TET) (all cohorts, n = 28, total (%)): Total: 5 (17.9%) | Hyponatremia (AE, not ITPP-related) (all cohorts, n = 28, total (%)): Total: 3 (10.7%) | Hypophosphatemia (TET) (all cohorts, n = 28, total (%)): Total: 4 (14.3%) | Icterus due to malignant obstruction (AE, not ITPP-related) (all cohorts, n = 28, total (%)): Total: 1 (3.6%) | Lower gastrointestinal bleeding (AE, not ITPP-related) (all cohorts, n = 28, total (%)): Total: 1 (3.6%) | Nausea & vomiting due to malignant infiltration of stomach (AE, not ITPP-related) (all cohorts, n = 28, total (%)): Total: 1 (3.6%) | Nausea (AE, not ITPP-related) (all cohorts, n = 28, total (%)): Total: 1 (3.6%) | Neutropenia (AE, not ITPP-related) (all cohorts, n = 28, total (%)): Total: 1 (3.6%) | Palpitations (AE, not ITPP-related) (all cohorts, n = 28, total (%)): Total: 1 (3.6%) | Pyrexia (AE, not ITPP-related) (all cohorts, n = 28, total (%)): Total: 2 (7.1%) | Upper respiratory tract infection (AE, not ITPP-related) (all cohorts, n = 28, total (%)): Total: 3 (10.7%) | Hyperphosphatemia, patients (asymptomatic, grade I): One | AV Block 1° (AE, not ITPP-related) (cohort 1, 1866 mg/m^2): 0 | Acute kidney injury grade 3 (AE, not ITPP-related) (cohort 1, 1866 mg/m^2): 0 | C. difficile enteritis (AE, not ITPP-related) (cohort 1, 1866 mg/m^2): 0 | Cholestasis (AE, not ITPP-related) (cohort 1, 1866 mg/m^2): 0 | Fatigue (AE, not ITPP-related) (cohort 1, 1866 mg/m^2): 0 | Hypercalcemia (TET) (cohort 1, 1866 mg/m^2): 0 | Hyperphosphatemia (TET) (cohort 1, 1866 mg/m^2): 0 | Hypertension (TET) (cohort 1, 1866 mg/m^2): 0 | Hypokalemia (AE, not ITPP-related) (cohort 1, 1866 mg/m^2): 0 | Hypomagnesemia (TET) (cohort 1, 1866 mg/m^2): 0 | Hyponatremia (AE, not ITPP-related) (cohort 1, 1866 mg/m^2): 0 | Hypophosphatemia (TET) (cohort 1, 1866 mg/m^2): 0 | Icterus due to malignant obstruction (AE, not ITPP-related) (cohort 1, 1866 mg/m^2): 0 | Nausea & vomiting due to malignant infiltration of stomach (AE, not ITPP-related) (cohort 1, 1866 mg/m^2): 0 | Nausea (AE, not ITPP-related) (cohort 1, 1866 mg/m^2): 0 | Neutropenia (AE, not ITPP-related) (cohort 1, 1866 mg/m^2): 0 | Palpitations (AE, not ITPP-related) (cohort 1, 1866 mg/m^2): 0 | Upper respiratory tract infection (AE, not ITPP-related) (cohort 1, 1866 mg/m^2): 0 | Pyrexia, CTCAE-Grade (cohort 1, AE, relationship to IMP: Unrelated): 1 | Ascites & death due to rapid progression of malignancy, CTCAE-Grade [1]: 5 | Lower gastrointestinal bleeding, CTCAE-Grade [1]: 2 | AV Block 1° (AE, not ITPP-related) (cohort 2, 3732 mg/m^2): 0 | Acute kidney injury grade 3 (AE, not ITPP-related) (cohort 2, 3732 mg/m^2): 0 | Ascites due to oncological progress (AE, not ITPP-related) (cohort 2, 3732 mg/m^2): 0 | C. difficile enteritis (AE, not ITPP-related) (cohort 2, 3732 mg/m^2): 0 | Cholestasis (AE, not ITPP-related) (cohort 2, 3732 mg/m^2): 0 | Fatigue (AE, not ITPP-related) (cohort 2, 3732 mg/m^2): 0 | Hyperphosphatemia (TET) (cohort 2, 3732 mg/m^2): 0 | Hypertension (TET) (cohort 2, 3732 mg/m^2): 0 | Hypokalemia (AE, not ITPP-related) (cohort 2, 3732 mg/m^2): 0 | Hyponatremia (AE, not ITPP-related) (cohort 2, 3732 mg/m^2): 0 | Hypophosphatemia (TET) (cohort 2, 3732 mg/m^2): 0 | Icterus due to malignant obstruction (AE, not ITPP-related) (cohort 2, 3732 mg/m^2): 0 | Lower gastrointestinal bleeding (AE, not ITPP-related) (cohort 2, 3732 mg/m^2): 0 | Nausea (AE, not ITPP-related) (cohort 2, 3732 mg/m^2): 0 | Neutropenia (AE, not ITPP-related) (cohort 2, 3732 mg/m^2): 0 | Palpitations (AE, not ITPP-related) (cohort 2, 3732 mg/m^2): 0 | Pyrexia (AE, not ITPP-related) (cohort 2, 3732 mg/m^2): 0 | Upper respiratory tract infection (AE, not ITPP-related) (cohort 2, 3732 mg/m^2): 0 | Hypercalcemia, CTCAE-Grade (cohort 2, AE): 1 | Hypomagnesemia, CTCAE-Grade (cohort 2, AE, relationship to IMP: Probably): 1 | Nausea & Vomiting necessitating hospitalisation, CTCAE-Grade (cohort 2, SAE, relationship to IMP: Unrelated): 2 | AV Block 1° (AE, not ITPP-related) (cohort 3, 5600 mg/m^2): 0 | Acute kidney injury grade 3 (AE, not ITPP-related) (cohort 3, 5600 mg/m^2): 0 | Ascites due to oncological progress (AE, not ITPP-related) (cohort 3, 5600 mg/m^2): 0 | Fatigue (AE, not ITPP-related) (cohort 3, 5600 mg/m^2): 0 | Hyperphosphatemia (TET) (cohort 3, 5600 mg/m^2): 0 | Hypertension (TET) (cohort 3, 5600 mg/m^2): 0 | Hypokalemia (AE, not ITPP-related) (cohort 3, 5600 mg/m^2): 0 | Hypomagnesemia (TET) (cohort 3, 5600 mg/m^2): 0 | Hyponatremia (AE, not ITPP-related) (cohort 3, 5600 mg/m^2): 0 | Icterus due to malignant obstruction (AE, not ITPP-related) (cohort 3, 5600 mg/m^2): 0 | Lower gastrointestinal bleeding (AE, not ITPP-related) (cohort 3, 5600 mg/m^2): 0 | Nausea & vomiting due to malignant infiltration of stomach (AE, not ITPP-related) (cohort 3, 5600 mg/m^2): 0 | Nausea (AE, not ITPP-related) (cohort 3, 5600 mg/m^2): 0 | Neutropenia (AE, not ITPP-related) (cohort 3, 5600 mg/m^2): 0 | Pyrexia (AE, not ITPP-related) (cohort 3, 5600 mg/m^2): 0 | Upper respiratory tract infection (AE, not ITPP-related) (cohort 3, 5600 mg/m^2): 0 | Hypercalcemia, CTCAE-Grade (cohort 3, AE): 1 | Hypophosphatemia, CTCAE-Grade (cohort 3, AE, relationship to IMP: Probably): 1 | Palpations, CTCAE-Grade (cohort 3, AE, relationship to IMP: Unrelated): 1 | Cholestasis, CTCAE-Grade (cohort 3, SAE, relationship to IMP: Unlikely): 1 | C. difficile enteritis, CTCAE-Grade (cohort 3, SAE, relationship to IMP: Unrelated): 3 | AV Block 1° (AE, not ITPP-related) (cohort 4, 7000 mg/m^2): 0 | C. difficile enteritis (AE, not ITPP-related) (cohort 4, 7000 mg/m^2): 0 | Cholestasis (AE, not ITPP-related) (cohort 4, 7000 mg/m^2): 0 | Hyperphosphatemia (TET) (cohort 4, 7000 mg/m^2): 0 | Hypokalemia (AE, not ITPP-related) (cohort 4, 7000 mg/m^2): 0 | Hypomagnesemia (TET) (cohort 4, 7000 mg/m^2): 0 | Hyponatremia (AE, not ITPP-related) (cohort 4, 7000 mg/m^2): 0
